Reference: patent US20230406840A1, “N-(2-(3-CYANO-2-AZABICYCLO[3.1.0]HEXAN-2-YL)-2-OXOETHYL)QUINOLINE-4-CARBOXAMIDES” (AstraZeneca AB, priority 2022, published 2023)
≈ marks a conversion by molar mass, not a printed value.

Columns and labels:
[1] = target: human Fibroblast activation protein alpha (hFAP) (Homo sapiens (Human), UniProt Q12884); test: hFAP inhibition assay (tight binders); format: biochemical; conditions: tight-binder format, Ala-Pro-AMC 20 μM, 2.5 h incubation; n = 1 or geometric mean (n = 5-10)
Description: Data were analyzed in Genedata Screener®.

FAP Human Plasma = FAP Human Plasma (Homo sapiens (Human), UniProt Q12884); test: FAP plasma inhibition assay, human plasma; format: biochemical; conditions: human plasma dilution 1:40, Ala-Pro-AMC 75 μM; n = 1
Description: (§1) This assay was adapted from the method described in Example 53 for detection of FAP target engagement enzyme activity in plasma. Plasma (anticoagulant K2EDTA) was used as the enzyme source: Human plasma (Pooled from AZ Biobank) and Mouse plasma (AZ AST Biobank). 384-Well black fluotrack PS plates (Greiner 781076) were used. 20 μL diluted plasma (Human plasma dilution 1:40, Mouse plasma dilution 1:67) in buffer (PBS, 0.1% BSA) was added to 0.6 μL compounds (in DMSO). Compounds were tested using 10 CR, 3-fold dilution series from 500 nM FAC. Two replicates for each assay point were run on the same plate. A fluorescence blank read was taken before substrate addition. Substrate, Ala-Pro-AMC (ARI-3144) stock solution (20 mM in DMSO) was diluted in buffer (PBS, 0.1% BSA) to 150 μM concentration and 20 μL added giving 75 μM FAC. Plates were incubated for 40 min at rt in the dark. The plates were read on a Beckman Paradigm® reader with excitation 360 nm and emission 465 nm. Data were analyzed in Excel (IDBS XLfit Add-In) using a one site dose response model (4-parameter logistic fit). […] Raw data signals were normalized using 1.5% DMSO in diluted plasma as 0% control and 1.5% DMSO in buffer (no plasma) as 100% inhibitor control.

FAP Mouse Plasma = FAP Mouse Plasma (Mus musculus (Mouse), UniProt P97321); test: FAP plasma inhibition assay, mouse plasma; format: biochemical; conditions: mouse plasma dilution 1:67, Ala-Pro-AMC 75 μM; n = 1
Description: as §1

[2] = target: Prolyl Oligopeptidase (hPREP) (Homo sapiens (Human), UniProt P48147); test: hPREP inhibition assay; format: biochemical; conditions: hPREP 0.6 nM, Z-Gly-Pro-amino-methylcoumarin 50 μM; read-out: PREP IC50
Description: Compounds were tested in a biochemical inhibition assay using Prolyl endopeptidase, Prolyl Oligopeptidase (hPREP) enzyme at 0.6 nM FAC (R&D Systems, 4308-SE) and the substrate Z-Gly-Pro-amino-methylcoumarin (Bachem, I-1145) at 50 μM FAC. 384 Low volume black plates (Greiner #784076) were used. […] 4 μL, 100 μM substrate solution (25 mM Tris HCl, 250 mM NaCl, 0.01% Triton X-100, 5 mM Glutathione, pH 7.5) was added to each well. Plates were centrifuged at 1000 rpm and incubated for 20 min at rt in dark. […] Data were analyzed in Genedata Screener®.

[3] = Metabolic stability in human liver microsomes (HLM); format: in vitro ADME
Description: Metabolic stability in HLM was measured as described in J Comput Aided Mol Des 2015, 29, 795.

Rat Hepatocytes (rHep) = test: Metabolic stability in rat hepatocytes (rHep); format: in vitro ADME
Description: Metabolic stability in rat hepatocytes was measured as described in J Comput Aided Mol Des 2015, 29, 795.

Human Hepatocytes (hHep) = test: Metabolic stability in human hepatocytes (hHep); format: in vitro ADME
Description: Metabolic stability in human hepatocytes was measured as described in Xenobiotica 2010, 40, 637.

Kinetic solubility = format: physicochemical; conditions: kinetic from dmso stock
Description: Kinetic solubility was measured as described in Comput Aided Mol Des 2015, 29, 795.

hFAP = hFAP (Homo sapiens (Human), UniProt Q12884);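 further: fluorescence read after incubating enzyme with substrate at room temperature, IC50 fitted from percent inhibition against log concentration with a one-site model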
Description: Compounds were tested in a biochemical inhibition assay using hFAP enzyme at 0.24 nM FAC (Proteros, 38-760 (PR-0071)) and the substrate Ala-Pro-AMC (ARI-3144) at 20 μM FAC. 384 low volume black plates (Greiner #784076) were used. 4 μL, 0.48 nM enzyme solution (100 mM Tris HCl, 100 mM NaCl, 0.05% Chaps, pH 7.4) was added to 40 nL compounds (in DMSO) at 10 CR, 3-fold dilution series from 50 μM FAC. Plates were incubated for 15 min at rt in dark. 4 μL, 40 μM substrate solution (100 mM Tris HCl, 100 mM NaCl, 0.05% Chaps, pH 7.4) was added to each well. Plates were centrifuged at 1000 rpm and incubated for 30 min at rt in dark. The plates were read on a PHERAstar® reader with excitation 340 nm and emission 460 nm. Data were analyzed in Genedata Screener®. IC50 values were determined by plotting % inhibition versus log compound concentration and using a one site dose response model.

[4] = Caco-2 AB intrinsic permeability; format: in vitro ADME; conditions: human, A to B, read-out: Caco2 AB Intrinsic Papp
Description: (§2) Caco-2 cell permeability was measured as described in Mol/Pharm 2017, 14, 1601.

[5] = Caco-2 bidirectional (ABBA) permeability; format: in vitro ADME; conditions: human
Description: as §2

hFAP (M39-A757) = hFAP (M39-A757) (Homo sapiens (Human), UniProt Q12884)
hFAP (M39-A757), sequence (Q12884 39-757): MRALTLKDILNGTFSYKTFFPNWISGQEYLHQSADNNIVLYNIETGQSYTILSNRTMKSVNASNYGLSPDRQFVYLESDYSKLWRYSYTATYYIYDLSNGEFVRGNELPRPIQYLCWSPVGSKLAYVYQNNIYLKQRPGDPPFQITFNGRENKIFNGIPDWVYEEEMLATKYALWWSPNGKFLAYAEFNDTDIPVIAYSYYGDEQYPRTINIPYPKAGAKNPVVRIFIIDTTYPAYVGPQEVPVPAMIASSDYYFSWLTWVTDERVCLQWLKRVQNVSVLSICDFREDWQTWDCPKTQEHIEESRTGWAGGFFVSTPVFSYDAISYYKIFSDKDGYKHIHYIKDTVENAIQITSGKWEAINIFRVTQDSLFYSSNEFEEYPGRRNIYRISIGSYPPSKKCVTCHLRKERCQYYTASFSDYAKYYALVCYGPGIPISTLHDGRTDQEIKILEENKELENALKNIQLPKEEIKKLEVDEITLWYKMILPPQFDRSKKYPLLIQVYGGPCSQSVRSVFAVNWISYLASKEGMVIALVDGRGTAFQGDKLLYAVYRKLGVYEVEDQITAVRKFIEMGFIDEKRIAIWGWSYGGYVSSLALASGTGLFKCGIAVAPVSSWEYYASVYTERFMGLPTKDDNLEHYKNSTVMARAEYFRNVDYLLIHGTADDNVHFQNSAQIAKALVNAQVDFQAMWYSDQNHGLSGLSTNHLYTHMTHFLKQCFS
Description: Compounds were tested in a direct binding assay using 8K surface plasmon resonance biosensor (GE Healthcare) at 20° C. Immobilization of hFAP (M39-A757) on a CMD200M sensor chip (Xantec) was performed using standard amine coupling procedure in immobilization buffer (10 mM HEPES, 150 mM NaCl, 0.05% Tween20, pH 7.4). The surface was washed with 10 mM NaOH, 1M NaCl before being activated with EDC/NHS (GE Healthcare), followed by immobilization of hFAP (in 10 mM Acetate pH 5.0). Finally, the surface was deactivated by ethanolamine. Immobilization levels of hFAP were around 4000-6000 RU. The reference spot was treated as described, omitting the injection of hFAP. Compound concentration series were injected over the immobilized protein in increasing concentrations (2-500 nM) using single cycle kinetics in running buffer (20 mM TRIS, 150 mM NaCl, 0.05% Tween20, 1% DMSO, pH 7.4). Interaction models were fitted globally to the experimental traces, enabling determination of kon, koff and Kd.

Prolyl Oligopeptidase (hPREP), sequence (P48147 whole entry): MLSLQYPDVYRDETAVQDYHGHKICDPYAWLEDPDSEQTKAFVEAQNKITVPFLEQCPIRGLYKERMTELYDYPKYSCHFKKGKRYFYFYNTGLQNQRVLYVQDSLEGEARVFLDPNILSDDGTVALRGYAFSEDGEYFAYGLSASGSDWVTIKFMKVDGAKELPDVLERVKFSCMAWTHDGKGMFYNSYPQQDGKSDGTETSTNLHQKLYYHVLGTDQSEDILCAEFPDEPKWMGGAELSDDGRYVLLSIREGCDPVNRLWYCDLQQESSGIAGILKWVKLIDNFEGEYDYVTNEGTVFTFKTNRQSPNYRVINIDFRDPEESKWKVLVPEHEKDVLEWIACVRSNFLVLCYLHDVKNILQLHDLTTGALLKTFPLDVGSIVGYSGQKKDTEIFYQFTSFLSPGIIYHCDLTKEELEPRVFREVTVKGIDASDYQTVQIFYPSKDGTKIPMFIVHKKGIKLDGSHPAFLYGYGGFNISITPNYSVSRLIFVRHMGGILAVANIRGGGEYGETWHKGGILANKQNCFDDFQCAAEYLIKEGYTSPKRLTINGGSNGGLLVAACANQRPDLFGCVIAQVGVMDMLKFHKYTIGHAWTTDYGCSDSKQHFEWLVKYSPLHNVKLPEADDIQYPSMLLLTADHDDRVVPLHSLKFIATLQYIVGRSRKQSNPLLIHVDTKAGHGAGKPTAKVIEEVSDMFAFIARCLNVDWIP
FAP Mouse Plasma, sequence (P97321 24-761 limits assumed): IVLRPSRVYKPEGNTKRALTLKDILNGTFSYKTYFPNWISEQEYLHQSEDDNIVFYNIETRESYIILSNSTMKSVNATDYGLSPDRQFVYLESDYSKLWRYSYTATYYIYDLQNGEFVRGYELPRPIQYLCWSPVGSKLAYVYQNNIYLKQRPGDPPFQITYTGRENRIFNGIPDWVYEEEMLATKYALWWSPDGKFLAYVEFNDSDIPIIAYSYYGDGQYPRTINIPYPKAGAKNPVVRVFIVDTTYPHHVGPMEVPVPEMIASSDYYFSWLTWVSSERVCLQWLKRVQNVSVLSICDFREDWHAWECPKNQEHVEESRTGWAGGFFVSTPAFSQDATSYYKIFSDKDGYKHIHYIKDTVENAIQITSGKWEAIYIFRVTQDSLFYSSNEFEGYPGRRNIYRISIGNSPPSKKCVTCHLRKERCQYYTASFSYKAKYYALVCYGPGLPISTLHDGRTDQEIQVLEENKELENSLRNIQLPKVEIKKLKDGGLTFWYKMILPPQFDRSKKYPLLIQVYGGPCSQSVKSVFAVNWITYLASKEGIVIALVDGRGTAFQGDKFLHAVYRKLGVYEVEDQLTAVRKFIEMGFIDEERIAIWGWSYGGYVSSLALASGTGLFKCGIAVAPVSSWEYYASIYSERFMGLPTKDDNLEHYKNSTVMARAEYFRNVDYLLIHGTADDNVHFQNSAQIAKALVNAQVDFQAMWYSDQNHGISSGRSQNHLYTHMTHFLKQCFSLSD
hFAP, sequence (Q12884 38-760): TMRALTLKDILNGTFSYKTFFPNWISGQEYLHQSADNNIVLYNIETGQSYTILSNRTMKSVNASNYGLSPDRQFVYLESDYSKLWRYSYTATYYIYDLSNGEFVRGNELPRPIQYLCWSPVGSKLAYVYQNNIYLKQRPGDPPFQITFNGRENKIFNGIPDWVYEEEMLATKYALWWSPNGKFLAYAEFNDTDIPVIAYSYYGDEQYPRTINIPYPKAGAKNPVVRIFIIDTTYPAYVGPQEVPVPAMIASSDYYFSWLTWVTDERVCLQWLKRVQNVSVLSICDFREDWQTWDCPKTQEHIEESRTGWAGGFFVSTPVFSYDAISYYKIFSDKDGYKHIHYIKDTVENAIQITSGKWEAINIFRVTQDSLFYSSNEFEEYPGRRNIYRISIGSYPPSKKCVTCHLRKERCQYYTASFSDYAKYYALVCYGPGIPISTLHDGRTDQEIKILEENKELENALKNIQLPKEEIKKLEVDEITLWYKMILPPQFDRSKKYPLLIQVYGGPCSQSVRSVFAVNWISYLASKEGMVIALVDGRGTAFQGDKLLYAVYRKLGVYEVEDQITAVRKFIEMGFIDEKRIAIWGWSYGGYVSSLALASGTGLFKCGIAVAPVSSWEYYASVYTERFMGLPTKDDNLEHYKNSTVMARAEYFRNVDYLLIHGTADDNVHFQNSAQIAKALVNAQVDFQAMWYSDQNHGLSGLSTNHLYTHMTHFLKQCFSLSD
human Fibroblast activation protein alpha (hFAP), sequence (Q12884 38-760): as above
FAP Human Plasma, sequence (Q12884 24-760 limits assumed): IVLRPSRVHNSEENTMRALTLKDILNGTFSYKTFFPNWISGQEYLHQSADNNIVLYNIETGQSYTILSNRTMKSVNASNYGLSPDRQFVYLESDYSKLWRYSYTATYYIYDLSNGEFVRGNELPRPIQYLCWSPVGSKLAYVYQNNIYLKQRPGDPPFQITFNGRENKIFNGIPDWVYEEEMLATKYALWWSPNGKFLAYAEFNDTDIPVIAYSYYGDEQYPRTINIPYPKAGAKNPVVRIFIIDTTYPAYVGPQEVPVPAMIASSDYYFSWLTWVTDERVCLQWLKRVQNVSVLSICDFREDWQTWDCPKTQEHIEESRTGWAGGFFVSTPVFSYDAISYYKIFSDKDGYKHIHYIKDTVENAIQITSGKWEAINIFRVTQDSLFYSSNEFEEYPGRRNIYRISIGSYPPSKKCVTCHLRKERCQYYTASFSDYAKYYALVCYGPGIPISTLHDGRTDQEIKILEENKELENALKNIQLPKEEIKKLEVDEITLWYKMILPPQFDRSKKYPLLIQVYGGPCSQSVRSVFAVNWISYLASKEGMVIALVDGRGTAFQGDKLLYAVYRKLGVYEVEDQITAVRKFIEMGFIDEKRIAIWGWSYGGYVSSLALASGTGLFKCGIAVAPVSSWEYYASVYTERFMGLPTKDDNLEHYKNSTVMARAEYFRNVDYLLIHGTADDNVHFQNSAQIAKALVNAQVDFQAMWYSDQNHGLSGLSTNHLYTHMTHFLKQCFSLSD

SMILES | IC50 [1] | IC50 (FAP Human Plasma) | IC50 (FAP Mouse Plasma) | IC50 [2] | microsomal CLint [3] | rHeps CLint (Rat Hepatocytes (rHep)) | hHep CLint (Human Hepatocytes (hHep)) | solubility (Kinetic solubility) | IC50 (hFAP) | Papp [4] | Papp A→B ([5]; A to B, read-out: Caco2 Bidirectional (ABBA) A to B Papp) | Papp B→A ([5]; B to A, read-out: Caco2 Bidirectional (ABBA) B to A Papp) | efflux ratio ([5]; read-out: Caco2 Bidirectional (ABBA) Efflux Ratio) | Kd (hFAP (M39-A757))
Cc1ccc2nccc(C(=O)NCC(=O)N3[C@H](C#N)C[C@@H]4C[C@@H]43)c2c1 [Example 9, N-(2-((1S,3S,5S)-3-Cyano-2-azabicyclo[3.1.0]hexan-2-yl)-2-oxoethyl)-6-methylquinoline-4-carboxamide] | 0.56 nM | 7.5 nM | 2.7 nM | > 50000 nM | – | – | – | – | < 2.8 nM | – | – | – | – | –
N#C[C@@H]1C[C@@H]2C[C@@H]2N1C(=O)CNC(=O)c1ccnc2ccc(C(F)(F)F)cc12 [Example 10, N-(2-((1S,3S,5S)-3-Cyano-2-azabicyclo[3.1.0]hexan-2-yl)-2-oxoethyl)-6-(trifluoromethyl)quinoline-4-carboxamide] | – | 34 nM | 15 nM | > 50000 nM | 37 µL/min/mg | 6.7 μL/min/1E6 | 7 μL/min/1E6 | 140 µM (≈ 54.4 µg/mL) | 4.8 nM | – | – | – | – | –
Cc1ccc2c(C(=O)NCC(=O)N3[C@H](C#N)C[C@@H]4C[C@@H]43)cc(C)nc2c1 [Example 31, N-(2-((1S,3S,5S)-3-Cyano-2-azabicyclo[3.1.0]hexan-2-yl)-2-oxoethyl)-2,7-dimethylquinoline-4-carboxamide] | 11 nM | 320 nM | – | 38000 nM | 6.2 µL/min/mg | 1.6 μL/min/1E6 | <1 μL/min/1E6 | > 1000 µM | 31 nM | 56 ×10⁻⁶ cm/s | – | – | – | –
COc1ccc2c(C(=O)NCC(=O)N3[C@H](C#N)C[C@@H]4C[C@@H]43)cc(C)nc2c1 [Example 41, N-(2-((1S,3S,5S)-3-Cyano-2-azabicyclo[3.1.0]hexan-2-yl)-2-oxoethyl)-7-methoxy-2-methylquinoline-4-carboxamide] | – | 380 nM | 300 nM | – | < 3 µL/min/mg | <1 μL/min/1E6 | <1 μL/min/1E6 | 120 µM (≈ 43.7 µg/mL) | 38 nM | – | – | – | – | –
N#C[C@@H]1C[C@@H]2C[C@@H]2N1C(=O)CNC(=O)c1ccnc2ccc(C3(C(F)(F)F)CC3)cc12 [Example 44, N-(2-((1S,3S,5S)-3-Cyano-2-azabicyclo[3.1.0]hexan-2-yl)-2-oxoethyl)-6-(1-(trifluoromethyl)cyclopropyl)quinoline-4-carboxamide] | 1.1 nM | – | – | > 50000 nM | > 300 µL/min/mg | 150 μL/min/1E6 | – | 510 µM (≈ 218 µg/mL) | 4.6 nM | – | – | – | – | 12 nM

Second part, the compound after the results:

IC50 [1] | IC50 (FAP Human Plasma) | IC50 (FAP Mouse Plasma) | IC50 [2] | microsomal CLint [3] | rHeps CLint (Rat Hepatocytes (rHep)) | hHep CLint (Human Hepatocytes (hHep)) | solubility (Kinetic solubility) | IC50 (hFAP) | Papp [4] | Papp A→B ([5]; A to B, read-out: Caco2 Bidirectional (ABBA) A to B Papp) | Papp B→A ([5]; B to A, read-out: Caco2 Bidirectional (ABBA) B to A Papp) | efflux ratio ([5]; read-out: Caco2 Bidirectional (ABBA) Efflux Ratio) | Kd (hFAP (M39-A757)) | SMILES
0.44 nM | 23 nM | 20 nM | 27000 nM | 9.7 µL/min/mg | 3.8 μL/min/1E6 | 2.8 μL/min/1E6 | 290 µM (≈ 116 µg/mL) | 2 nM | – | – | – | – | – | N#C[C@@H]1C[C@@H]2C[C@@H]2N1C(=O)CNC(=O)c1ccnc2ccc(Br)cc12 [Example 1, 6-Bromo-N-(2-((1S,3S,5S)-3-cyano-2-azabicyclo[3.1.0]hexan-2-yl)-2-oxoethyl)quinoline-4-carboxamide]
0.12 nM | 15 nM | 15 nM | > 50000 nM | < 3 µL/min/mg | 4.5 μL/min/1E6 | <1 μL/min/1E6 | 210 µM (≈ 83.8 µg/mL) | 0.68 nM | – | – | – | – | – | N#C[C@@H]1C[C@@H]2C[C@@H]2N1C(=O)CNC(=O)c1ccnc2cc(Br)ccc12 [Example 3, 7-Bromo-N-(2-((1S,3S,5S)-3-cyano-2-azabicyclo[3.1.0]hexan-2-yl)-2-oxoethyl)quinoline-4-carboxamide]
0.3 nM | 5.5 nM | 2.4 nM | > 50000 nM | 8.4 µL/min/mg | 49 μL/min/1E6 | 2.3 μL/min/1E6 | 810 µM (≈ 292 µg/mL) | < 1.7 nM | 29 ×10⁻⁶ cm/s | 18 ×10⁻⁶ cm/s | 33 ×10⁻⁶ cm/s | 1.8 | – | N#C[C@@H]1C[C@@H]2C[C@@H]2N1C(=O)CNC(=O)c1ccnc2cc(C3CC3)ccc12 [Example 37, N-(2-((1S,3S,5S)-3-Cyano-2-azabicyclo[3.1.0]hexan-2-yl)-2-oxoethyl)-7-cyclopropylquinoline-4-carboxamide]
0.25 nM | – | – | > 50000 nM | 120 µL/min/mg | 40 μL/min/1E6 | – | > 1000 µM | 0.76 nM | – | – | – | – | 7.3 nM | CCOC1(c2ccc3nccc(C(=O)NCC(=O)N4[C@H](C#N)C[C@@H]5C[C@@H]54)c3c2)CC1 [Example 45, N-(2-((1S,3S,5S)-3-Cyano-2-azabicyclo[3.1.0]hexan-2-yl)-2-oxoethyl)-6-(1-ethoxycyclopropyl)quinoline-4-carboxamide]
0.18 nM | – | – | > 50000 nM | 20 µL/min/mg | 6.6 μL/min/1E6 | <1 μL/min/1E6 | 110 µM (≈ 42.4 µg/mL) | 1.7 nM | – | – | – | – | 25 nM | N#C[C@@H]1C[C@@H]2C[C@@H]2N1C(=O)CNC(=O)c1ccnc2ccc(C3(C#N)CC3)cc12 [Example 46, N-(2-((1S,3S,5S)-3-Cyano-2-azabicyclo[3.1.0]hexan-2-yl)-2-oxoethyl)-6-(1-cyanocyclopropyl)quinoline-4-carboxamide]
